From patent US8492391B2, “Substituted 6-(2-hydroxybenzylamino)purine derivatives, their use as medicaments and compositions containing these derivatives” (Univerzita Palackeho V Olomouci, priority 2009, dated 2013) come the findings set out here.

For the assay, the system named is p53 in RPMI-8226 cells. Briefly: Immunoblotting in RPMI-8226 cells with temperature-sensitive p53 (E285K) at permissive and restrictive temperature. Type of assay: cell-based, human. Here is the method: For immunoblotting, cell were detached with rubber policeman and washed three times with ice-cold PBS and lysed in buffer (50 mM Tris, pH 7.4, 250 mM NaCl, 5 mM EDTA, 50 mM NaF, 1 mM Na3VO4, 1% Nonidet P40) containing mixture of protease and phosphatase inhibitors (Sigma-Aldrich, USA). 20 μg of total proteins were separated by SDS-polyacrylamide gel electrophoresis (SDS-PAGE) and transferred onto nitrocellulose membranes. Membranes were blocked in 5% milk and 0.1% Tween 20 in PBS and probed overnight with specific monoclonal antibodies or rabbit polyclonal sera. […] All primary antibodies were diluted in PBS containing 5% powdered milk; 0.1% Tween 20. Peroxidase conjugated rabbit anti-mouse immunoglobulin or porcine anti-rabbit immunoglobulin antisera (DAKO, Denmark) were used as the secondary antibodies and visualised with ECL reagents (Amersham-Pharmacia, Little Chalfont, UK).
Then, we also determined effect of the compounds on the cell lines expressing some temperature-sensitive mutants of p53. For example, in BT474 and RPMI-8226 cells bearing temperature-sensitive mutant of p53 (E285K), p53 protein switches between mutant and wild-type conformation in a temperature-dependent manner. At restrictive (37° C.) temperature mutated p53 protein is expressed, while after shift to a permissive (30° C.) temperature p53 is folded correctly and functional. To analyze the functional involvement of p53 in the efficiency of the treatment with the compounds, we cultivated RPMI-8226 cells independently at two different temperatures (restrictive or permissive), and exposed them to increasing doses of selected compounds. The cell lysates were prepared and the levels of cell cycle regulators were analysed by immunoblotting.
In general terms: A western blot detects proteins with antibodies after separation by electrophoresis.

The structures appear in SMILES notation.

On to `CCC(CO)Nc1nc(NCc2cccc(OC)c2O)c2ncn(C(C)C)c2n1` (racemic) [Compound 128, (RS)-2-({6-[(2-hydroxy-3-methoxybenzyl)amino]-9-isopropyl-9-H-purin-2-yl}amino)butan-1-ol], for which, where the note is “RPMI-8226 cells”, the “drug concentration causing fragmentation of PARP-1, permissive versus restrictive temperature” value was “about two-fold lower drug concentrations”. Also, the “level of wild-type p53 protein” value (RPMI-8226 cells at permissive (30° C.) temperature) was “caused accumulation of wild-type p53 protein”. Besides, the “level of mutant p53” value (RPMI-8226 cells at restrictive (37° C.) temperature) is on record as “did not change the levels of mutant p53”. Moreover, the “expression of anti-apoptotic protein Mcl-1” value (RPMI-8226 cells, 30° C. versus restrictive temperature) is “suppressed more efficiently at 30 °C”.
